In PubChem BioAssay AID1963844 (Molecular Pharmacology Branch, DTP, NCI, 2024):
“And” between values parts separate entries of the source, which are not always exact repeats. Equal entries are not always repeated.

System: 422866-222-R5-J1-PDC complex spheroid viability
Test: Anticancer human tumor 422866-222-R5-J1-PDC patient-derived pancreatic adenocarcinoma cell line growth inhibition [POLQ]
Details: for viability, T/C: stronger effect = lower value
Protocol: Multicellular complex tumor spheroid response to Polymerase (POL) inhibitors (novobiocin, ART-558, RP6685) in combination with a variety of drugs and investigational agents in selected tumor cell lines
The POL inhibitors (novobiocin, ART-558, and RP6685) were evaluated both individually and in combination with standard of care and investigational anticancer small molecules within a complex spheroid model of solid tumors. . Complex spheroids include a stromal component modeled by human endothelial cells (HUVEC) and fibroblasts modeled by human mesenchymal stem cells (MSCs). The concentration ranges selected for each drug and investigational agent were based upon clinically achievable concentrations if the clinical Cmax of the agent was known.
Compounds. The drugs and investigational agents: novobiocin (NSC847541), ART-558 (NSC835418), RP-6685 (NSC848927), peposertib (NSC802822), ceralasertib (NSC780249), elimusertib (NSC800525), camonsertib (NSC841442), AZD-1390 (NSC803789), olaparib (NSC753686), talazoparib (NSC767125), rucaparib (NSC756644), sotorasib (NSC818433), MRTX-1133 (NSC836407), SN-38 (NSC673596), topotecan (NSC609699), epotoside (NSC141540), doxorubicin (NSC123127), gemcitabine (NSC613327), 5-fluorouracil (NSC19893), paclitaxel (NSC125973), vemurafenib (NSC761431), MSA-2 (NSC828583), SN-011 (NSC837082), adavosertib (NSC754352), prexasertib (NSC758257), carboplatin (NSC241240) and oxaliplatin (NSC266046), were obtained from the National Cancer Institute (NCI) Developmental Therapeutics Program Chemical Repository (21). The FDA-approved anticancer drug set is available from the Developmental Therapeutics Program at https://dtp.cancer.gov/organization/dscb/obtaining/. […] The stock solutions were prepared in dimethyl sulfoxide (DMSO, Sigma-Aldrich, St. Louis, MO, cat. D2650), except for the platinum compounds which were prepared in saline (Quality Biological, Gaithersburg, MD, cat. 114-055-101), at 800-fold the tested concentration and stored at -70 degrees C prior to their use. All drugs and investigational agents were tested over a range starting from a high concentration at or near the clinical Cmax and decreasing in half-log increments. If the clinical Cmax for an agent had not been determined, the highest concentration tested was 10 microM, except for SN-38, which was tested at a high concentration of 1 microM.
Cell Culture. All cells were maintained in an incubator at 37 degrees C and 5% CO2 with 95% humidity. The PDC lines were cultured according to standard operating procedures established by the NCI PDMR (https://pdmr.cancer.gov). Table 3 of the manuscript, lists the cell lines along with the number of the three cell types plated to form the mct-spheroids and media for tumor cell growth. After thawing, all PDC lines, except 997537-175-T-J1-PDC and 415267-285-R-J2-PDC, were cultured in Matrigel-coated flasks prepared with a working solution of 1X Ham's F-12 nutrient mix, without supplementation (Thermo Fisher Scientific, cat. 11765054), 100 U/mL penicillin-streptomycin (Thermo Fisher Scientific, cat. 15140122), and 2.5% Matrigel (Corning Inc., Corning, NY, cat. 354248) for the first three passages. The two PDC lines 997537-175-T-J1-PDC and 415267-285-R-J2-PDC were cultured on uncoated flasks. The 857933-349-R-J2-PDC line was cultured in 6C/Colon 1B media containing advanced DMEM/F-12 (Thermo Fisher Scientific, cat. 12634028), 10 mM HEPES (Thermo Fisher Scientific, cat. 15630080), 1X GlutaMAX supplement (Thermo Fisher Scientific, cat. 35050061), 0.1 mg/mL primocin (InvivoGen, San Diego, CA, cat. ant-pm-2), 10% defined fetal bovine serum, heat inactivated (HyClone Laboratories Inc., Logan, UT, cat. SH30070.03HI), 50% L-WRN conditioned media (ATCC, cat. CRL-3276), 1.25 mM N-Acetyl-L-cysteine (Sigma-Aldrich, cat. A9165), 10 mM nicotinamide (Sigma-Aldrich, cat. N0636), 1X B-27 supplement (Thermo Fisher Scientific, cat. 17504044), 1X N-2 supplement (Thermo Fisher Scientific, cat. […]
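Also: spheroids exposed to compounds for one week before readout.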
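For viability, T/C in this document: percent of DMSO vehicle wells luminescence so 100% = untreated viability.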

C#Cc1c(F)ccc2cc(O)cc(-c3ncc4c(N5CC6CCC(C5)N6)nc(OCC56CCCN5CC(F)C6)nc4c3F)c12 (configuration not stated) + COC1C(OC(N)=O)C(O)C(Oc2ccc3c(O)c(NC(=O)c4ccc(O)c(CC=C(C)C)c4)c(=O)oc3c2C)OC1(C)C
IC50 (curve of first compound, second compound 0.0316 µM): 715 nM
IC50 (curve of first compound, second compound 0.1 µM): 780 nM
IC50 (curve of first compound, second compound 0.316 µM): 750 nM
IC50 (curve of first compound, second compound 1 µM): 859 nM
IC50 (curve of first compound, second compound 3.16 µM): 664 nM
IC50 (curve of first compound, second compound 10 µM): 810 nM
viability, T/C (second compound 0.0316 µM, first compound 0.0316 µM): 95.7%
viability, T/C (second compound 0.0316 µM, first compound 0.1 µM): 78.9%
viability, T/C (second compound 0.0316 µM, first compound 0.316 µM): 59.6%
viability, T/C (second compound 0.0316 µM, first compound 1 µM): 46.2%
viability, T/C (second compound 0.0316 µM, first compound 3.16 µM): 35.9%
viability, T/C (second compound 0.0316 µM, first compound 10 µM): 29.8%
viability, T/C (second compound 0.1 µM, first compound 0.0316 µM): 92.5%
viability, T/C (second compound 0.1 µM, first compound 0.1 µM): 86.3%
viability, T/C (second compound 0.1 µM, first compound 0.316 µM): 66.5%
viability, T/C (second compound 0.1 µM, first compound 1 µM): 46.1%
viability, T/C (second compound 0.1 µM, first compound 3.16 µM): 34.2%
viability, T/C (second compound 0.1 µM, first compound 10 µM): 32.8%
viability, T/C (second compound 0.316 µM, first compound 0.0316 µM): 99.5%
viability, T/C (second compound 0.316 µM, first compound 0.1 µM): 85.8%
viability, T/C (second compound 0.316 µM, first compound 0.316 µM): 66.2%
viability, T/C (second compound 0.316 µM, first compound 1 µM): 45.2%
viability, T/C (second compound 0.316 µM, first compound 3.16 µM): 31.4%
viability, T/C (second compound 0.316 µM, first compound 10 µM): 28.8%
viability, T/C (second compound 1 µM, first compound 0.0316 µM): 106%
viability, T/C (second compound 1 µM, first compound 0.1 µM): 102%
viability, T/C (second compound 1 µM, first compound 0.316 µM): 73.4%
viability, T/C (second compound 1 µM, first compound 1 µM): 46.9%
viability, T/C (second compound 1 µM, first compound 3.16 µM): 37%
viability, T/C (second compound 1 µM, first compound 10 µM): 32%
viability, T/C (second compound 3.16 µM, first compound 0.0316 µM): 93.3%
viability, T/C (second compound 3.16 µM, first compound 0.1 µM): 93.9%
viability, T/C (second compound 3.16 µM, first compound 0.316 µM): 67.1%
viability, T/C (second compound 3.16 µM, first compound 1 µM): 40.9%
viability, T/C (second compound 3.16 µM, first compound 3.16 µM): 36.9%
viability, T/C (second compound 3.16 µM, first compound 10 µM): 30.3%
viability, T/C (second compound 10 µM, first compound 0.0316 µM): 96.1%
viability, T/C (second compound 10 µM, first compound 0.1 µM): 86.1%
viability, T/C (second compound 10 µM, first compound 0.316 µM): 64.7%
viability, T/C (second compound 10 µM, first compound 1 µM): 47.6%
viability, T/C (second compound 10 µM, first compound 3.16 µM): 33.7%
viability, T/C (second compound 10 µM, first compound 10 µM): 29.4%

O=C(Nc1ccc(O)c(NS(=O)(=O)c2ccc(F)cc2)c1)c1ccc(-c2ccccc2)cc1
viability, T/C (compound 0.0316 µM): 110% and 86.1% and 107%
viability, T/C (compound 0.1 µM): 79.5% and 94.1% and 96.3%
viability, T/C (compound 0.316 µM): 78.5% and 81.6% and 79.1%
viability, T/C (compound 1 µM): 90.2% and 93.1% and 97.9%
viability, T/C (compound 3.16 µM): 90% and 107% and 97.1%
viability, T/C (compound 10 µM): 106% and 113% and 128%
IC50 (curve of compound): > 10000 nM

CC1COCCN1c1cc(-c2ccnn2C)c2ccnc(-c3ccn[nH]3)c2n1 (configuration not stated)
viability, T/C (compound 0.0316 µM): 76.8% and 96.8% and 97.8%
viability, T/C (compound 0.1 µM): 61.1% and 55.4% and 46.2%
viability, T/C (compound 0.316 µM): 38.6% and 42.8% and 35.1%
viability, T/C (compound 1 µM): 44.4% and 36.6% and 37.6%
viability, T/C (compound 3.16 µM): 80.4% and 81.7% and 64%
viability, T/C (compound 10 µM): 69.2% and 80.5% and 68.2%
IC50 (curve of compound): > 10000 nM and 10000 nM

CNCc1ccc(-c2[nH]c3cc(F)cc4c3c2CCNC4=O)cc1
viability, T/C (compound 0.0316 µM): 88% and 95% and 99.8%
viability, T/C (compound 0.1 µM): 89.3% and 83.7% and 99.7%
viability, T/C (compound 1 µM): 90.7% and 102% and 101%
viability, T/C (compound 3.16 µM): 77.7% and 90.4% and 86.5%
viability, T/C (compound 10 µM): 94.5% and 76.6% and 86.3%
IC50 (curve of compound): > 10000 nM
